Laboratory results published in patent US9486457B2, “Use of cinnabarinic acid as a modulator of immune responses in autoimmune disorders” (The Regents of the University of California, priority 2010, dated 2016).
Entries after “also recorded” stand apart in the source; their conditions may differ.

Key:
[1] = test system: experimental allergic encephalomyelitis (EAE); assay: Experimental allergic/autoimmune encephalomyelitis (EAE) induced with MOG peptide and CFA; assay type: in vivo, C57BL/6 mice; details: for development / induction of EAE (disease occurrence and severity): single dose (1 mg/mouse) at Day 0 within the emulsion containing MOG peptide and adjuvant, compared to DMSO
Method: FIGS. 10A and 10B illustrate the number or frequency of cytokine producing cells within the CNS (or spleen) of mice treated at day 0 with 1 dose of CA (1 mg/mouse) or vehicle (DMSO) within the emulsion contain MOG peptide and adjuvant. Representative flow plots are shown at the bottom of the figures. EAE survival curve for 10 animals treated with CA or with DMSO showing that 1/10 animals treated with CA gets sick whereas 9/10 animals treated with vehicle (DMSO) are sick at the indicated timepoint.
However, TCDD and FICZ are both known AHR agonists, like CA, whereas 3,4 DAA appears to act as an antagonist. Therefore the regulation of the Th17/Th22/Treg cell differentiation pathways at the level of the AHR is likely to be more complex than merely reflecting the presence of an agonistic or antagonistic ligand. To assess whether CA was protective in EAE we performed a series of experiments in which CA was administered in a single dose (1 mg/mouse) contained within the emulsion used to induce disease.

AHR = biological target: T1, AHR (Mus musculus, UniProt P30561); assay: AHR-responsive (dioxin responsive element) GFP reporter assay in H1G1 mouse hepatoma cells; assay type: cell-based; details: agonist mode
T1 construct: murine hepatoma cell line stably transfected with an AhR-responsive (AhR-eGFP) reporter construct; endogenous in cells
T1 sequence (P30561 10-848): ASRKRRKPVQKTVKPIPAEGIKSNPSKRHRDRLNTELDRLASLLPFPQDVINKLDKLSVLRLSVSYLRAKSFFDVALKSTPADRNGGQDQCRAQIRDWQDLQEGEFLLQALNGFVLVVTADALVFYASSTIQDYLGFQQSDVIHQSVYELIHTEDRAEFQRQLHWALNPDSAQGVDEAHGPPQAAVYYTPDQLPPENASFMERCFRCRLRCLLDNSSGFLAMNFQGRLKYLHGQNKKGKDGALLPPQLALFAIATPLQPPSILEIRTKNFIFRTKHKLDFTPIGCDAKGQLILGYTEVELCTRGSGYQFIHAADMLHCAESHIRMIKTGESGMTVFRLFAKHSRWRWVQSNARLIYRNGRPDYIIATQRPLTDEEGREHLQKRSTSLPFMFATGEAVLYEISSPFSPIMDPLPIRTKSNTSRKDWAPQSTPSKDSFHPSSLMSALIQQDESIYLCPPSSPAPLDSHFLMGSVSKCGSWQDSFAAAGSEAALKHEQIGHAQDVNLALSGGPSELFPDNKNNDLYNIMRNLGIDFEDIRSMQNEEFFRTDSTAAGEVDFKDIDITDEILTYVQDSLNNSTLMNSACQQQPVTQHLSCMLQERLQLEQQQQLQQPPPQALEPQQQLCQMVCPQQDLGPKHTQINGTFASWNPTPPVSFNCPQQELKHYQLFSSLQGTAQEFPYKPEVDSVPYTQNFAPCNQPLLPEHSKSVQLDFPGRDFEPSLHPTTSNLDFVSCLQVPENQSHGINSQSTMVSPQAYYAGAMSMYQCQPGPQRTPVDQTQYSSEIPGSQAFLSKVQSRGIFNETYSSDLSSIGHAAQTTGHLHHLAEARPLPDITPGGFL
From the text: (§1) We performed a precursory screen of all tryptophan metabolites including both 3-HKA and 3-HAA to bind to and act as agonists or antagonists of the AHR using two separate assays. First we examined the ability of 3-HKyn, 3-HAA, and PA to displace TCDD binding to the human AHR protein in vitro (20). […] We also measured AHR activation using a mouse hepatoma cell line (H1G1) that stably expresses a green fluorescent protein (GFP) reporter construct downstream of a series of dioxin responsive elements (FIG. 7A) (21).

human AHR protein = biological target: T2, human AHR protein (Homo sapiens, UniProt P35869); assay: Displacement of TCDD binding to in vitro translated human AHR protein; details: cell-free
T2 sequence (P35869 11-848): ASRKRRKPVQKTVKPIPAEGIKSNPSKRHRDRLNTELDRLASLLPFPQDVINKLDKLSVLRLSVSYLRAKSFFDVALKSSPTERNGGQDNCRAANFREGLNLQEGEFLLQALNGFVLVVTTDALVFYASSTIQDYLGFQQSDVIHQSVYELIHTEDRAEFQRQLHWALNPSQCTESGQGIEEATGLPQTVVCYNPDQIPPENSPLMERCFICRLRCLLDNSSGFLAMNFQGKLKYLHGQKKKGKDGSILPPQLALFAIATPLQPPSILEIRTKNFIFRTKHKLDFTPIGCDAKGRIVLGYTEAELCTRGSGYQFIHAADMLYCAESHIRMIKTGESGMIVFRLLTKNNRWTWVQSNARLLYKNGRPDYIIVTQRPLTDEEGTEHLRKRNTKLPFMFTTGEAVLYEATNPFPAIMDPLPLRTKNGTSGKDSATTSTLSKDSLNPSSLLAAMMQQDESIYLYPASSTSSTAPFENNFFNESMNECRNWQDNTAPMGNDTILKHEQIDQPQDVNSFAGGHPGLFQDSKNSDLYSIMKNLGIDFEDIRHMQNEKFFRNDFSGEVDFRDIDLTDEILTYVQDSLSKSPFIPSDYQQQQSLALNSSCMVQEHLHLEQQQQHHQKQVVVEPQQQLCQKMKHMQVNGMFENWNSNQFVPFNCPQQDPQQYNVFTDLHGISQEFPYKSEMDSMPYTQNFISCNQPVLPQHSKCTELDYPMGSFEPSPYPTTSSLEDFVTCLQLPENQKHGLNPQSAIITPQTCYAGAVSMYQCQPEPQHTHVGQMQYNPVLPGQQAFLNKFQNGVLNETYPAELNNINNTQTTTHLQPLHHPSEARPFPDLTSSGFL
From the text: as §1

human naïve CD4+ T cells = assay: IL-22 induction in cultured human naïve CD4+ T cells stimulated with anti-CD3/anti-CD28 under Th17 polarizing conditions; assay type: cell-based; details: CA 25 μM in FIG. 8D
From the text: This is AHR dependent as inclusion of an AHR antagonist fully abrogated effect.
FIG. 8: CA is an endogenous AhR agonist generated by oxidative dimerization of 3-HAA. (A) An alternative pathway of 3-HAA metabolism leads to the generation of CA either by non-enzymatic (oxidation) or enzymatic (laccase, ceruloplasmin) processes. CA is structurally similar to the synthetic AhR ligand TCDD. […] Data are representative of three similar experiments.

[2] = test system: naïve (CD45RA+CCR7+CD95−CD25−) CD4+ T cells; assay: Foxp3 induction in stimulated naïve CD4+ T cells; assay type: cell-based, human; details: stimulated naïve CD4+ T cells in vitro
From the text: FIG. 9: The synthetic 3-HAA analogue 3,4 DAA (Tranilast) is an AhR antagonist and promotes the induction of Foxp3 by stimulated CD4+ T cells. (A) 3,4 DAA shares some structural similarities to 3-HAA (highlighted region).
Therefore we asked whether T cells treated with 3,4 DAA might be prompted to differentiate into Treg cells through upregulation of the transcription factor Foxp3 (26).

lymphocytes = assay: CYP1A1 transcription within lymphocytes; assay type: cell-based
From the text: (§2) 3-HAA is particularly susceptible to oxidation, resulting in the formation of the metabolite cinnabarinic acid (CA) through dimerization of two molecules of 3-HAA (24). […] In addition, CA has potent effects on thymocyte maturation (25) not unlike what has been observed in rodents treated with TCDD (26-28) or in transgenic mice with a constitutively active AHR (29). To test the hypothesis that CA is an AHR ligand, we obtained pure CA, prepared through a chemical synthesis using 3-HAA as a starting material and purified by HPLC, and analyzed its ability to bind to and activate the AHR in vitro.

zebrafish embryos = assay: CYP1A1 induction in zebrafish embryos; assay type: in vivo; details: within 72 hours
From the text: as §2

[3] = single dose 1 mg/mouse in the emulsion

Nc1c(C(=O)O)c2nc3c(C(=O)O)cccc3oc-2cc1=O [Cinnabarinic Acid, cinnabarinic acid]
animals that get sick (EAE survival curve) ([1]; 10 animals, 1 dose of CA (1 mg/mouse) at day 0, 9/10 with vehicle (DMSO)): 1/10
Foxp3+ Treg cells in the CNS [1, 3]: but not in the CNS
Foxp3+ Treg cells in the spleen [1, 3]: slight, but significant, increase in Foxp3+ Treg cells in the spleen
frequency and number of Th17 and Th22 cells in the spleen [1, 3]: increase in the frequency and number of Th17 and Th22 cells in the spleen
frequency of infiltrating Th17 and Th22 cells in the CNS [1, 3]: decrease in the frequency of infiltrating Th17 and Th22 cells
number of infiltrating T cells in the central nervous system (CNS) [1, 3]: greatly reduced number of infiltrating T cells in the central nervous system (CNS)
development / induction of EAE (disease occurrence and severity) [1]: inhibits the development of experimental allergic encephalomyelitis (EAE); also recorded: inhibits the induction of EAE
development / induction of EAE (disease occurrence and severity) ([1]; listed as CA): suppress autoimmunity in a mouse model of multiple sclerosis; also recorded: significant reduction of disease occurrence and severity; also recorded: almost completely block the development of EAE
development / induction of EAE (disease occurrence and severity) ([1]; listed as Cinnabaric Acid): inhibits the induction of EAE
proliferation of splenocytes on restimulation with MOG peptide ([1]; splenocytes from CA treated mice): significantly greater amount of proliferation
AHR agonist activity (activation of AHR-responsive reporter) (AHR): activates AHR responsive (Dioxin Responsive Elements)
AHR agonist activity (activation of AHR-responsive reporter) (AHR; listed as CA): able to bind to and activate the AHR at much lower concentrations than that observed for 3-HAA; also recorded: potent agonist of the AhR
displacement / inhibition of TCDD binding to human AHR (human AHR protein): displaces Dioxin (TCDD)
displacement / inhibition of TCDD binding to human AHR (human AHR protein; listed as CA): able to bind to and activate the AHR at much lower concentrations than that observed for 3-HAA; also recorded: dose-dependent inhibition of TCDD binding
IL-22 induction (human naïve CD4+ T cells): potently induces IL-22
IL-22 induction (human naïve CD4+ T cells; listed as CA): stimulate the differentiation of a newly defined subset of human T cells that produce the cytokine IL-22; also recorded: promoted IL-22 production more strongly than any other tryptophan metabolite tested; also recorded: potently induces IL-22
Foxp3 expression (frequency of CD4+Foxp3+ T cells) [2]: did not appear to promote Foxp3 upregulation
CYP1A1 transcription (lymphocytes): upregulation of CYP1A1 transcription within lymphocytes
CYP1A1 induction (zebrafish embryos): potent induction of CYP1A1 in zebrafish embryos
